# Key:
# Format in all cases: in vivo
# [1] = system: adult cat fleas (Ctenocephalides felis); test: Ctenocephalides felis in-vitro contact test, adult cat flea; conditions: after 48 hours, read-out: efficacy (fleas dead or moribund); for pest or weed control at 1 µg/cm2, 100 g/ha: 1 μg/cm^2 (=100 g/ha)
# Procedure, shortened: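 Acetone solution coated onto glass tube walls; 900 ppm gives 5 μg/cm². Once dry, 5–10 adult fleas per tube held at room temperature for 48 h. Efficacy (%) is the share of fleas dead or moribund, i.e. unable to climb away on a 45–50° C heating plate.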
# [2] = system: Rhipicephalus (Boophilus) microplus larvae (strain Parkhurst, resistant against synthetic pyrethroids); test: Rhipicephalus (Boophilus) microplus in-vitro contact test, larval cattle tick; conditions: after 48 hours, read-out: efficacy (larvae dead or moribund); for pest or weed control at 1 µg/cm2, 100 g/ha: 1 μg/cm^2 (=100 g/ha); for pest or weed control at 5 µg/cm2, 500 g/ha: 5 μg/cm^2 (=500 g/ha)
# Procedure, shortened: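 Acetone solutions were coated onto glass tube walls (900 ppm gives 5 μg/cm²); after drying, 20–50 pyrethroid-resistant Parkhurst larvae added and held at 27 °C, 85% RH. At 48 h, efficacy as % larvae dead or moribund, judged by loss of negative geotaxis.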
# [3] = system: adult brown dog ticks (Rhipicephalus sanguineus); test: Rhipicephalus sanguineus in-vitro contact test, adult brown dog ticks; conditions: 48 h, 5 μg/cm^2 (=500 g/ha), after 48 hours, read-out: efficacy (ticks dead or moribund)
# Procedure, shortened: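 Acetone solution coated on glass tube inner walls (900 ppm, giving 5 μg/cm^2); after drying, 5–10 adult ticks added and kept 48 h at room temperature. Efficacy scored as percent dead or moribund, i.e., ticks unable to climb away on a 45–50 °C heating plate within 5 min.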
# [4] = system: green peach aphid (Myzus persicae); test: Myzus persicae oral test; conditions: 120 h, 4 ppm, after 5 days
# Method: Solvent: 100 parts by weight acetone
# To produce a suitable preparation of active compound, 1 part by weight of active compound is mixed with the stated amount of solvent, and the concentrate is diluted with water to the desired concentration.
# 50 μL compound solution is filled in microtiter plates and 150 μL IPL41 insect medium (33%+15% sugar) is added to obtain a total volume of 200 μL per well. Afterwards the plates are sealed with parafilm through which a mixed population of the green peach aphid (Myzus persicae) can suck on the compound preparation.
# After 5 days mortality in % is determined. 100% means all aphids have been killed and 0% means none of the aphids have been killed.
# [5] = system: larvae of the banded cucumber beetle (Diabrotica balteata); test: Diabrotica balteata spray test; conditions: 168 h, after 7 days, read-out: efficacy (seedling growth); for pest or weed control at 32 µg/disc, 100 g/ha: 100 g/ha (=32 μg/well)
# Procedure, shortened: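 Germinated wheat seedlings (5 per well, on agar) sprayed with compound in acetone/DMF with emulsifier-containing water, then infested with 10–20 Diabrotica balteata larvae. Efficacy (%) scored after 7 days from seedling growth: 100% = growth as untreated uninfested control, 0% = no seedlings grown.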
# [6] = system: adult engorged female ticks (Rhipicephalus microplus); test: Rhipicephalus (Boophilus) microplus injection test; conditions: 168 h, 4 μg/animal, egg deposition after 7 days, read-out: efficacy (infertile eggs)
# Procedure, shortened: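 Efficacy is scored from egg fertility, with 100% meaning every egg infertile and 0% every egg fertile. Five engorged females per test received 1 μL DMSO solution abdominally. Eggs of unclear fertility were kept until hatching, about 42 days.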
# [7] = system: fall armyworm larvae (Spodoptera frugiperda); test: Spodoptera frugiperda spray test; conditions: 168 h, maize leaf sections, after 7 days
# Procedure, shortened: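 Compound dissolved in acetone/dimethylformamide, diluted in water containing 1000 ppm alkylarylpolyglycol ether emulsifier and sprayed onto maize leaf sections. Dried sections were infested with larvae; % mortality scored after 7 days (100% = all caterpillars killed, 0% = none).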
# [8] = system: adult flies Musca domestica strain WHO-N; test: Musca domestica test (MUSCDO surface treatment & contact assay); conditions: surface concentration 4 mg/m^2, 30 minutes exposure, 24 hours after contact, read-out: mortality (efficacy)
# Method: Musca domestica Test (MUSCDO Surface Treatment & Contact Assay)
# (§1) Solvent: Aceton+2000 ppm rapeseed oil methyl ester (RME)
# (§2) In order to produce a sufficient, active ingredient containing solution it is necessary to solve the test compound in the solvent-mix (acetone at 2 mg/ml/RME 2000 ppm). This solution is pipetted onto a glazed tile and after evaporation of the acetone, adult flies of the species Musca domestica strain WHO-N are placed onto the dried surface. The exposure time is 30 minutes.
# (§3) Mortality in percent (%) is determined 24 hours after contact of the insects to the treated surface. 100% mortality means that all tested insects are dead, whereas 0% means that no insect died.
# [9] = system: adult mosquitoes Aedes aegypti strain MONHEIM; test: Aedes aegypti test (AEDSAE surface treatment & contact assay); conditions: 24 hours after contact, read-out: mortality (efficacy)
# Method: Aedes aegypti Test (AEDSAE Surface Treatment & Contact Assay)
# as §1
# as §2, with “mosquitoes” for “flies”, “Aedes aegypti” for “Musca domestica”, “MONHEIM” for “WHO-N”
# as §3
# [10] = system: adult mosquitoes Anopheles funestus strain FUMOZ-R; test: Anopheles funestus test (ANPHFU surface treatment & contact assay); conditions: surface concentration 20 mg/m^2, 30 minutes exposure, 24 hours after contact, read-out: mortality (efficacy)
# Method: Anopheles funestus Test (ANPHFU Surface Treatment & Contact Assay)
# as §1
# as §2, with “mosquitoes” for “flies”, “Anopheles funestus” for “Musca domestica”, “FUMOZ-R (Hunt et al., Med. Vet. Entomol. 2005 Sep. 19(3): 271-275)” for “WHO-N”
# as §3
# [11] = system: adult Blattella germanica strain PAULINIA; test: Blattella germanica test (BLTTGE surface treatment & contact assay); conditions: surface concentration 20 mg/m^2, 30 minutes exposure, 24 hours after contact, read-out: mortality (efficacy)
# Method: Blattella germanica Test (BLTTGE Surface Treatment & Contact Assay)
# as §1
# as §2, with “animals” for “flies”, “Blattella germanica” for “Musca domestica”, “PAULINIA” for “WHO-N”
# as §3
# [12] = system: adult unfed cat fleas (Ctenocephalides felis); test: Ctenocephalides felis oral test; conditions: 48 h, 100 ppm in citrated cattle blood, after 2 days
# Procedure, shortened: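 About 20 adult unfed cat fleas fed through parafilm on citrated cattle blood containing compound (from a DMSO concentrate). Blood held at 37° C, fleas at room temperature. Mortality in % scored after 2 days.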
SMILES,"pest or weed control at 1 µg/cm2, 100 g/ha [1]","pest or weed control at 5 µg/cm2, 500 g/ha ([1]; 5 μg/cm^2 (=500 g/ha))","pest or weed control at 1 µg/cm2, 100 g/ha [2]","pest or weed control at 5 µg/cm2, 500 g/ha [2]","pest or weed control at 5 µg/cm2, 500 g/ha [3]",mortality at 4 ppm [4],"pest or weed control at 32 µg/disc, 100 g/ha [5]",pest or weed control at 0.004 mg [6],"pest or weed control at 6.4 µg/disc, 20 g/ha ([5]; 20 g/ha (=6.4 μg/well))",mortality at 100 g/ha [7],mortality at 4 mg/m2 [8],"mortality at 4 mg/m2 ([9]; surface concentration 4 mg/m^2, 30 minutes exposure)","mortality at 20 mg/m2 ([9]; surface concentration 20 mg/m^2, 30 minutes exposure)",mortality at 20 mg/m2 [10],mortality at 20 mg/m2 [11],mortality at 100 ppm [12]
"CC(NC(=O)c1cc(C(F)(F)F)cc(C(F)(F)F)c1)c1nccnc1-c1ccc(C(=O)N2CCOCC2)cn1 (racemic) [Example I-34, (rac)-N-[1-{3-[5-(morpholine-4-carbonyl)pyridin-2-yl]pyrazin-2-yl}ethyl]-3,5-bis(trifluoromethyl)benzamide]",80%,90%,100%,100%,80%,100%,80%,,,,,,,,,
CC(NC(=O)c1cc(C(F)(F)F)cc(C(F)(F)F)c1)c1nccnc1-c1ccc(Cl)cn1 (stereo not shown) [Example I-20],,,100%,100%,,90%,100%,80%,80%,100%,,,,,,
"CC(NC(=O)c1cc(F)cc(C(F)(F)F)c1)c1nccnc1-c1ncccn1 (racemic) [Example I-7, (rac)-3-Fluoro-N-(1-(3-(pyrimidin-2-yl)pyrazin-2-yl)ethyl)-5-(trifluoromethyl)benzamide]",90%,,100%,100%,100%,,,100%,,,80 to 100%,80 to 100%,80 to 100%,80 to 100%,80 to 100%,100%
